Measured values: patent US20240008480A1, “MICROCAPSULE WITH ACETAMIDES AND DIFLUFENICAN” (MONSANTO TECHNOLOGY LLC, priority 2020, published 2024)

What was measured:
[1] = test system: GR (glyphosate resistant) palmer amaranth (AMAPA); experiment: Greenhouse pre-emergent efficacy, Example 3B; assay type: in vivo, Amaranthus palmeri
Text: (§1) ACC, DFF and MRB were used as the commercial products Warrant®, Brodal® and TriCor® DF as described in Example 3A above. Further, also a DFF+MRB pre-mix (200 g/L DFF+400 g/L MRB, suspension concentrate) was used. For GR (glyphosate resistant) palmer amaranth (AMAPA), at 1X rate, all 2- and 3-way treatments provided >95% control. Except for the DFF+MRB pre-mix, these treatments also provided >95% control of GR AMAPA at ½X rate as well. No single active ingredient provided acceptable control of GR AMAPA in this trial.

proso millet (PANMI) = experiment: Greenhouse pre-emergent efficacy, Example 3B; assay type: in vivo, Panicum miliaceum; settings: both rates tested
Text: as §1

[2] = test system: glyphosate resistant Canola (Roundup Ready® Canola); experiment: Greenhouse post-emergent efficacy in glyphosate resistant Canola, Example 3C; assay type: in vivo; settings: text statement on Table 3C
Description: ACC and DFF were used as the commercial products Warrant® and Brodal® as described in Example 3A above. The seeds of glyphosate resistant Canola (Roundup Ready® Canola) were planted in 3.5-inches (8.89 cm) square plastic pots filled with a potting media of 75% silt loam and 25% Redi-earth (Sun Gro, Bellevue, WA). The temperature conditions were 22° C. day and 17° C. night with 14 hours of supplemental light (approximately 600 microeinsteins). The pots are placed in a controlled-environment greenhouse equipped with sub-irrigation. The treatments applications were applied to the plants with a track sprayer generally using a TTI110015 nozzle spray nozzle. The spray nozzle was 16 inches (40.64 cm) above the top of the plants and a spray volume rate of about 140 L/ha was applied. The plants were sprayed when canola was at the V3-V4 growth stage. Visual ratings (% control) were collected at 14 DAT.

Structure (SMILES) | control of GR AMAPA, in words [1] | control of proso millet (PANMI), in words (proso millet (PANMI)) | herbicidal activity on glyphosate resistant Canola, in words [2]
CCOCN(C(=O)CCl)c1c(C)cccc1CC [ACC, 2-chloro-N-(ethoxymethyl)-N-(2-ethyl-6-methylphenyl)acetamide] | weak control | weak control | very low herbicidal activity
O=C(Nc1ccc(F)cc1F)c1cccnc1Oc1cccc(C(F)(F)F)c1 [DFF, N-(2,4-difluorophenyl)-2-[3-(trifluoromethyl)phenoxy]-3-pyridinecarboxamide] | weak control | weak control | 
